Where two headings read alike, the source gives them in different places.
Key:
[1] = test system: apical buds of budded plants; assay: Ploidy increase in buds treated with colchicine, stomata on leaves counted per unit area and compared to the parent; format: in vivo; details: twice daily for five days minimum
Method: Firstly, the plants are budded (on a selected root stock), then they are held in a dormant state and the appropriate chill requirement is given in a cool room (if required). The plants are then removed to a warm environment to prime the bud (which is still dormant). This is continued up to the point at which dormancy is “broken”, cell division is commenced. The bud is then wrapped in absorbent substance, the absorbent material is injected with a 1% aqueous solution of the colchicine drug. Note that this is 10× higher concentration than normal treatments. A plastic surround is used to enclose the bud, to keep it moist but exposed to the drug. This treatment is repeated twice daily for five days minimum.
In a next step, to determine whether a ploidy increase has resulted, the stomata on leaves are counted per unit area and compared to the parent. Unexpectedly, it is observed that between 10-20% of the apical buds have their ploidy level increased as a result of this process (compared with only approx 1% in normal techniques). Thus, for example, in citrus, plant leaves become shorter, thicker, wider and oil glands become more prominent.

[2] = test system: apical buds of budded plants; details: normal techniques (comparison; about 10x lower colchicine concentration); cited from earlier work

COc1cc2c(c(OC)c1OC)-c1ccc(OC)c(=O)cc1[C@@H](NC(C)=O)CC2 [colchicine]
apical buds having their ploidy level increased ([1]; 1% aqueous solution of colchicine injected into absorbent wrap around bud at break of dormancy): 10-20%
effect on original growing point (main bud) ([1]; 1% aqueous solution of colchicine): generally killed
apical buds having their ploidy level increased [2]: approx 1%
